{"source": "patent US20200179428A1", "about": "“CYCLIC PHOSPHATE SUBSTITUTED NUCLEOSIDE DERIVATIVES AND METHODS OF USE THEREOF FOR THE TREATMENT OF VIRAL DISEASES” (priority 2016, published 2020)", "key": {"replicon cells (1b-Con1)": {"test_system": "replicon cells (1b-Con1)", "experiment": "Replicon activity assay (replicon RNA level by real-time RT-PCR, Taqman)", "format": "cell-based", "details": "HCV replicon genotype 1b, read-out: EC50 (1b) Range", "procedure": "(§1) To measure cell-based anti-HCV activity of the compounds of the present invention, replicon cells (1b-Con1) are seeded at 5000 cells/well in 96-well plates one day prior to treatment with a compound of the invention. Various concentrations of a test compound of the invention in DMSO are then added to the replicon cells, with the final concentration of DMSO at 0.5% and fetal bovine serum at 10% in the assay media. Cells are harvested three days post-dosing, and the replicon RNA level is determined using real-time RT-PCR (Taqman assay) with GAPDH RNA as endogenous control. EC50 values are calculated from experiments with 10 serial twofold dilutions of the inhibitor in triplicate. To measure cytotoxicity in replicon cells of an inhibitor, an MTS assay is performed according to the manufacturer's protocol for CellTiter 96 Aqueous One Solution Cell Proliferation Assay (Promega, Cat # G3580) three days post dosing on cells treated identically as in replicon activity assays. […] Cytotoxicity in other types of cells may be measured using the same MTS protocol."}, "[1]": {"experiment": "Cytotoxicity MTS assay (CellTiter 96 Aqueous One Solution) in replicon cells", "format": "cell-based", "details": "HCV replicon cells (1b-Con1); EDU; read-out: CC50 (EDU) Range", "procedure": "as §1"}}, "note": "Read-outs that look alike come from different tables or passages of the source.", "data": [{"smiles": "C[C@@]1(N)[C@@H]2O[P@](=O)(OCCC3(C(=O)OC4CCCC4)CC3)OC[C@H]2O[C@H]1n1ccc(=O)[nH]c1=O", "note": "[Compound 26B]", "values": [{"measurement": "EC50", "setting": "replicon cells (1b-Con1); Hepatitis C virus", "result": "> 10", "unit": "µM"}, {"measurement": "CC50 at 3 days", "setting": "[1]", "result": "> 50", "unit": "µM"}]}, {"smiles": "C#C[C@]1(C)[C@@H]2O[P@@](=O)(OCC[C@H](OC)C(=O)OC(C)C)OC[C@H]2O[C@H]1n1ccc(=O)[nH]c1=O", "note": "[Compound 56A]", "values": [{"measurement": "EC50", "setting": "replicon cells (1b-Con1); Hepatitis C virus", "result": "0.25 to 1", "unit": "µM"}, {"measurement": "CC50 at 3 days", "setting": "[1]", "result": "> 50", "unit": "µM"}]}, {"smiles": "C#C[C@]1(C)[C@@H]2O[P@](=O)(OCC(C)CCC(=O)OC(C)C)OC[C@H]2O[C@H]1n1ccc(=O)[nH]c1=O", "note": "(some centres unmarked) [Compound 22B]", "values": [{"measurement": "EC50", "setting": "replicon cells (1b-Con1); Hepatitis C virus", "result": "> 10", "unit": "µM"}, {"measurement": "CC50 at 3 days", "setting": "[1]", "result": "> 50", "unit": "µM"}]}, {"smiles": "C#C[C@@]1(O)[C@@H]2OP(=O)(OCC[C@H](C)C(=O)OC3CCCC3)OC[C@H]2O[C@H]1n1ccc(=O)[nH]c1=O", "note": "(single isomer, unassigned) [Compound 8A1]", "values": [{"measurement": "EC50", "setting": "replicon cells (1b-Con1); Hepatitis C virus", "result": "0.25 to 1", "unit": "µM"}, {"measurement": "CC50 at 3 days", "setting": "[1]", "result": "> 50", "unit": "µM"}]}, {"smiles": "CC(CCOP1(=O)OC[C@H]2O[C@@H](n3ccc(=O)[nH]c3=O)[C@](C)(N)[C@@H]2O1)C(=O)OC1CCCC1", "note": "(single isomer, unassigned) [Compound 14A1]", "values": [{"measurement": "EC50", "setting": "replicon cells (1b-Con1)", "result": "> 10", "unit": "µM"}, {"measurement": "CC50 at 3 days", "setting": "[1]", "result": "> 50", "unit": "µM"}]}, {"smiles": "CC(C)OC(=O)C(CCO[P@]1(=O)OC[C@H]2O[C@@H](n3ccc(=O)[nH]c3=O)[C@](C)(N)[C@@H]2O1)c1ccccc1", "note": "(some centres unmarked) [Compound 33B]", "values": [{"measurement": "EC50", "setting": "replicon cells (1b-Con1); Hepatitis C virus", "result": "> 10", "unit": "µM"}, {"measurement": "CC50 at 3 days", "setting": "[1]", "result": "> 50", "unit": "µM"}]}, {"smiles": "C#C[C@]1(C)[C@@H]2O[P@@](=O)(OCCC(CC)C(=O)OC(C)C)OC[C@H]2O[C@H]1n1ccc(=O)[nH]c1=O", "note": "(some centres unmarked) [Compound 31A]", "values": [{"measurement": "EC50", "setting": "replicon cells (1b-Con1); Hepatitis C virus", "result": "0.25 to 1", "unit": "µM"}, {"measurement": "CC50 at 3 days", "setting": "[1]", "result": "> 50", "unit": "µM"}]}, {"smiles": "C#C[C@]1(C)[C@@H]2O[P@](=O)(OCC[C@H](C)C(=O)OC(C)C)OC[C@H]2O[C@H]1n1cnc2c(N)ncnc21", "note": "[Compound 72B]", "values": [{"measurement": "EC50", "setting": "replicon cells (1b-Con1); Hepatitis C virus", "result": "0.25 to 1", "unit": "µM"}, {"measurement": "CC50 at 3 days", "setting": "[1]", "result": "> 50", "unit": "µM"}]}, {"smiles": "CC(C)OC(=O)CC(F)(F)CO[P@]1(=O)OC[C@H]2O[C@@H](n3ccc(=O)[nH]c3=O)[C@](C)(N)[C@@H]2O1", "note": "[Compound 49B]", "values": [{"measurement": "EC50", "setting": "replicon cells (1b-Con1); Hepatitis C virus", "result": "1 to 10", "unit": "µM"}, {"measurement": "CC50 at 3 days", "setting": "[1]", "result": "< 50", "unit": "µM"}]}, {"smiles": "CC(C)OC(=O)[C@H](C)CCOP1(=O)OC[C@@]2(F)O[C@@H](n3ccc(=O)[nH]c3=O)[C@](C)(O)[C@@H]2O1", "note": "(some centres unmarked) [Compound 86A]", "values": [{"measurement": "EC50", "setting": "replicon cells (1b-Con1); Hepatitis C virus", "result": "1 to 10", "unit": "µM"}, {"measurement": "CC50 at 3 days", "setting": "[1]", "result": "> 50", "unit": "µM"}]}, {"smiles": "C#C[C@]1(C)[C@@H]2O[P@](=O)(OCC[C@H](OC)C(=O)OC(C)C)OC[C@H]2O[C@H]1n1ccc(=O)[nH]c1=O", "note": "[Compound 56B]", "values": [{"measurement": "EC50", "setting": "replicon cells (1b-Con1); Hepatitis C virus", "result": "0.25 to 1", "unit": "µM"}, {"measurement": "CC50 at 3 days", "setting": "[1]", "result": "> 50", "unit": "µM"}]}, {"smiles": "CC(C)OC(=O)[C@@H](C)CCOP1(=O)OC[C@H]2O[C@@H](n3cnc4c(N)ncnc43)[C@](C)(Cl)[C@@H]2O1", "note": "(single isomer, unassigned) [Compound 35A2]", "values": [{"measurement": "EC50", "setting": "replicon cells (1b-Con1); Hepatitis C virus", "result": "≤ 0.25", "unit": "µM"}, {"measurement": "CC50 at 3 days", "setting": "[1]", "result": "> 50", "unit": "µM"}]}, {"smiles": "CC(C)OC(=O)C(C)(C)CO[P@@]1(=O)OC[C@H]2O[C@@H](n3ccc(=O)[nH]c3=O)[C@](C)(N)[C@@H]2O1", "note": "[Compound 15A]", "values": [{"measurement": "EC50", "setting": "replicon cells (1b-Con1); Hepatitis C virus", "result": "> 10", "unit": "µM"}, {"measurement": "CC50 at 3 days", "setting": "[1]", "result": "> 50", "unit": "µM"}]}, {"smiles": "C#C[C@]1(C)[C@@H]2O[P@@](=O)(OCC[C@H](C)C(=O)OC(C)C)OC[C@H]2O[C@H]1n1cnc2c(N)ncnc21", "note": "[Compound 72A]", "values": [{"measurement": "EC50", "setting": "replicon cells (1b-Con1); Hepatitis C virus", "result": "> 10", "unit": "µM"}, {"measurement": "CC50 at 3 days", "setting": "[1]", "result": "> 50", "unit": "µM"}]}, {"smiles": "CC(C)OC(=O)COCCO[P@]1(=O)OC[C@H]2O[C@@H](n3ccc(=O)[nH]c3=O)[C@](C)(N)[C@@H]2O1", "note": "[Compound 69B]", "values": [{"measurement": "EC50", "setting": "replicon cells (1b-Con1); Hepatitis C virus", "result": "> 10", "unit": "µM"}, {"measurement": "CC50 at 3 days", "setting": "[1]", "result": "> 50", "unit": "µM"}]}, {"smiles": "C#C[C@]1(C)[C@@H]2O[P@](=O)(OCCC(CC)C(=O)OC3CCCC3)OC[C@H]2O[C@H]1n1ccc(=O)[nH]c1=O", "note": "(some centres unmarked) [Compound 30B]", "values": [{"measurement": "EC50", "setting": "replicon cells (1b-Con1); Hepatitis C virus", "result": "> 10", "unit": "µM"}, {"measurement": "CC50 at 3 days", "setting": "[1]", "result": "> 50", "unit": "µM"}]}, {"smiles": "CC(C)OC(=O)C(C)(C)CO[P@]1(=O)OC[C@H]2O[C@@H](n3ccc(=O)[nH]c3=O)[C@](C)(C#N)[C@@H]2O1", "note": "[Compound 16B]", "values": [{"measurement": "EC50", "setting": "replicon cells (1b-Con1); Hepatitis C virus", "result": "> 10", "unit": "µM"}, {"measurement": "CC50 at 3 days", "setting": "[1]", "result": "> 50", "unit": "µM"}]}, {"smiles": "CC(C)OC(=O)[C@@H](C)CCOP1(=O)OC[C@H]2O[C@@H](n3ccc(=O)[nH]c3=O)[C@](C)(Cl)[C@@H]2O1", "note": "(single isomer, unassigned) [Compound 39A1]", "values": [{"measurement": "EC50", "setting": "replicon cells (1b-Con1); Hepatitis C virus", "result": "≤ 0.25", "unit": "µM"}, {"measurement": "CC50 at 3 days", "setting": "[1]", "result": "> 50", "unit": "µM"}]}, {"smiles": "CC(C)OC(=O)C(C)(C)CCO[P@]1(=O)OC[C@H]2O[C@@H](n3ccc(=O)[nH]c3=O)[C@](C)(N)[C@@H]2O1", "note": "[Compound 19B]", "values": [{"measurement": "EC50", "setting": "replicon cells (1b-Con1); Hepatitis C virus", "result": "> 10", "unit": "µM"}, {"measurement": "CC50 at 3 days", "setting": "[1]", "result": "> 50", "unit": "µM"}]}]}
